Experimental data as given in patent US7951364B2, “CaR receptor as a mediator of migratory cell chemotaxis and/or chemokinesis” (The General Hospital Corporation, priority 2000, dated 2011).
One block for each molecule: values may come before it.

How the values were obtained:
CaR [1] = target: T1, CaR (Homo sapiens, UniProt P41180); test: Cytosolic calcium changes in purified monocytes (Indo-1/AM, flow cytometry); format: cell-based; details: for Increase in cytosolic calcium: 1 μM in the presence of 1.5 mM Ca^++; for Stimulation of cytosolic calcium responses: monocytes
T1 construct: endogenous in cells; host or cells: peripheral blood CD14+ monocytes, sorted by FACS
T1 sequence (P41180 20-1078): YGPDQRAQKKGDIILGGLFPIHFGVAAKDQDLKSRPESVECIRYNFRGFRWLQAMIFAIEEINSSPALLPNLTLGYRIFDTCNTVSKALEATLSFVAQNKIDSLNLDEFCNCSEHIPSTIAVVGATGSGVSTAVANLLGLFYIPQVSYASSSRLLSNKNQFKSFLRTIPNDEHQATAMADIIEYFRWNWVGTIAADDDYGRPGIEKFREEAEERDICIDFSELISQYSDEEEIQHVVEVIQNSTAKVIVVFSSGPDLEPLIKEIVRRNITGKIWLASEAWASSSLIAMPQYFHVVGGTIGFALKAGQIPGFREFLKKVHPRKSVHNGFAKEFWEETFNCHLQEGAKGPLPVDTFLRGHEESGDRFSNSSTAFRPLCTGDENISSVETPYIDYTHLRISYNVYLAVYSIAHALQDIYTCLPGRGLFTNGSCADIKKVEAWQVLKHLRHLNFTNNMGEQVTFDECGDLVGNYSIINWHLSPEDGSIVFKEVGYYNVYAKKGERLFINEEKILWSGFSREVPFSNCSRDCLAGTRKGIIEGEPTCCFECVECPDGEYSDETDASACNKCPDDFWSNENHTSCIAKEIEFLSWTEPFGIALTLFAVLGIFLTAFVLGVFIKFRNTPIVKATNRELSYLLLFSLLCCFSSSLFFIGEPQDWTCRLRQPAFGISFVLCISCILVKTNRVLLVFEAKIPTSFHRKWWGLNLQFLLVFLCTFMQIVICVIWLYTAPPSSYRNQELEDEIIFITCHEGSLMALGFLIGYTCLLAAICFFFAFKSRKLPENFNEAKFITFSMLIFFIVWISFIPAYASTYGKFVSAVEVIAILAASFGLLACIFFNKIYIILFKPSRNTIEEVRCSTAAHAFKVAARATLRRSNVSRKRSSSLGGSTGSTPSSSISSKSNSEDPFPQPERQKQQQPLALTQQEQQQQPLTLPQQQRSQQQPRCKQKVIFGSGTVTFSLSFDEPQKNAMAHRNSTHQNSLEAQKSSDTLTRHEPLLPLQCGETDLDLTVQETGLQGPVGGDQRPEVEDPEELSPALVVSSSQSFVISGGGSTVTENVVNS
Experimental: (§1) Preparation of peripheral blood CD14^+ monocytes. Low density cells were isolated from human and mouse peripheral blood using Ficoll-Hypaque (Pharmacia, Piscataway, N.J.). CD14^+ monocytes were purified by sorting on FACSVantage (Becton Dickinson, San Jose, Calif.) based on CD14 expression. Purified cells were incubated in either calcium-free medium (Hanks' Balanced Salt Solution 1×, CellGro, Hermdon. VA) or Iscove's Medium 1×(Mod) (CellGro, Herndon, Va.) which contains 1.5 mM Ca++. […] Cells were incubated for up to 24 hours in 5% CO2 humidified air. Monocytes were then detached from the plate using a cell scraper. All calcium concentrations indicated in the presentation of the data represent the total Ca^++ present in the basal medium plus any added Ca^++.
Cytosolic calcium changes. Purified monocytes were loaded with Indo-1/AM (Molecular Probes, Eugene, Oreg.). Cells were collected on FACSVantage for 0.30 sec to establish a baseline emission value for Indo-1/AM. […] Data acquisition then continued for up to 5 minutes.

CCR-2 = test: Chemokine receptor expression on monocytes by flow cytometry: CCR-2; format: cell-based, human; details: for Mean fluorescent intensity -CCR-2 Mean +/− s.e.m.: CD14^+ monocytes, agonist 1 μM in the presence of 1.5 mM Ca^++
Experimental: (§2) Chemokine receptor expression and flow cytometric analysis.
Table 1: Exposure of CD14^+ monocytes to Ca^++ enhances CCR2 expression in a dose dependent manner. Monocytes were exposed to varying concentrations of Ca^++ and to the selective CaR activator, NPS R-467 (1 μM), or to NPS S-467 (1 μM) in the presence of 1.5 mM Ca^++. The median fluorescence intensity for CCR2 expression was measured for each Ca^++ concentration and in the presence of NPS R-467 or S-467. Mean values +/−s.e.m. from three independent experiments are shown.

CD14^+ monocytes = test: Transmigration assay (monocyte chemotaxis, transwell); format: cell-based, human; details: for Stimulation of transmigration: monocytes; for Inhibition of monocyte chemotaxis towards a positive gradient of Ca^++ by pretreatment: Ca^++ at 3 mM; for Interaction of chemokine with added/elevated Ca^++ on transmigration: chemokine in combination with elevated Ca^++; for Dependence of chemokine-induced chemotaxis of CD14^+ PBMC on extracellular calcium: positive concentration gradient of chemokine
Experimental: as §1
(§3) Transmigration assays. Transwells (5 μm pore size polycarbonate membrane, 12 mm diameter) (Costar, Corning, N.Y.) were used to assess cell migration using an established methodology (25). The concentration of Ca^++ in IMDM (CellGro, Herndon, Va.) in the upper and lower chambers of the transwell were adjusted according to a checkerboard analysis of chemotaxis. Calcium concentrations varied from 0 mM to 6.5 mM. Purified monocytes (1×10^4) were then placed in the top chamber with 150 μl of IMDM (CellGro, Hemdon, Va.). 500 μl of the medium was added to the bottom of the well and supplemented with varying concentrations of Ca^++ or with Ca^++ plus 10 ng/ml of MCP-1, 100 ng/ml of SDF-1α or 10 ng/ml of MIP-1α (PeproTech, Rocky Hills, N.Y.). Cells were incubated at 37° C. for 3 hours. To study inhibition of chemotaxis, cells were subsequently incubated with wortmannin (1 μM for 20 minutes at 37° C.), herbimycin (1 μM for 20 minutes at 37° C.) or genistein (1 μg/ml for 20 minutes at 37° C.), before their use in transmigration assays. At the end of the experiment, cells were then harvested from the lower chamber and counted using a hemocytometer.

[2] = system: monocytes (Mac-1 positive mononuclear cells); test: Biologic activity in vivo: subcutaneous injection, monocyte infiltration at injection site; design: species or system C57BL/6 mice; details: tissue excised 18 hours later, CaCl2 5.0 mM, NPS R-467 10 μM
Experimental: Biologic activity of ionic calcium in vivo. C57BL/6 mice (Jackson Laboratories) were injected subcutaneously at a marked, shaved spot on the abdomen with 20 μl of 5 mM CaCl2 or 20 μl of MCP-1 at a concentration of 10 ng/ml, with a combination of MCP-1 and 5 mM CaCl2 or with 10 μM NPS R-467 in PBS. Control mice were injected subcutaneously with 20 μl PBS alone. All subcutaneously injected agents contained less than 0.004 ng/ml of LPS by the limulus assay (Sigma) as previously described (Bleul, C. C., et al., J Exp Med, 1996, 184:1101-1109). Mice were sacrificed by CO2 asphyxiation 18 hours after injection, and injection sites were excised, snap-frozen and 4 μm cryosections were obtained and stained with hematoxylin and eosin. Immunocytochemistry was performed on the frozen sections using alkaline phosphatase-conjugated Mac-1 antibody (Pharmingen) as previously described and assessed by light microscopy (Bleul, C. C., et al., supra).

[3] = system: mononuclear cells derived from neonatal CaR −/−, +/− or +/+ mice; test: Transmigration assay with cells from CaR knockout and wild-type mice; format: cell-based, mouse; details: CaR −/−, +/− or +/+ cells
Experimental: as §3
CaR−/− were bred as previously described (Ho, C., et al., Nat Genet 1995, 11:389-94). To produce CaR−/− mice for this study, heterozygote mice were intercrossed. The mice studied were either 129S6/svev or 129S6/svev/Swiss Webster mixed genetic background. […]

CaR [4] = test: CaR surface expression on monocytes after exposure to chemokines; format: cell-based, human; details: monocytes after chemokine stimulation; untreated 361+/−25
Excerpt: as §2
In order to assess whether there was reciprocal regulation of the CaR by chemokine receptors, we evaluated CaR surface expression on cells before and after exposure to the chemokines, SDF-1α or MCP-1. The mean fluorescence intensity of CaR expression was 361+/−25 (mean+/−s.e.m.) units for untreated monocytes and rose to 673+/−59 following MCP-1 stimulation. Monocytic expression of CaR rose to 519+/−48 with SDF-1α a treatment.

human CD34^+ cells = test: In vitro assays of human CD34^+ hematopoietic progenitor cells; format: cell-based; details: in the setting of CaR activation
Excerpt: Calcium ions effect Hematopoietic Progenitor Cells. We also assessed the effects of calcium, through its interaction with the calcium sensing receptor (CaR) using in vitro assays of human CD34^+ cells. […] Therefore, calcium participates in maintaining candidate stem cells in a primitive, undifferentiated state. […] This was accompanied by a decrease in the level of LTC-ICs in the bone marrow, but an increase in the level of CFU-Cs, with a converse increase in hematopoietic stem cells in is the peripheral blood.

Increase in cytosolic calcium (CaR [1]): Sustained increases | Stimulation of cytosolic calcium responses (CaR [1]): Stimulation | Mean fluorescent intensity -CCR-2 Mean +/− s.e.m. (CCR-2): 460 +/− 52
Molecule: COc1cccc([C@@H](C)NCCCc2ccccc2)c1 [NPS R-467, reference compound]
Potency of R-467 vs. S-467 in enhancing actions of high Ca^++ (cytosolic calcium, chemotaxis) (CD14^+ monocytes): greater potency | Stimulation of transmigration (CD14^+ monocytes): Stimulation | Accumulation of mononuclear cells staining positive for Mac-1 at injection site [2]: Accumulation

Increase in cytosolic calcium (CaR [1]): Sustained increases | Stimulation of cytosolic calcium responses (CaR [1]): Stimulation | Mean fluorescent intensity -CCR-2 Mean +/− s.e.m. (CCR-2): 417 +/− 48
Molecule: COc1cccc([C@H](C)NCCCc2ccccc2)c1 [NPS S-467, reference compound]
Stimulation of transmigration (CD14^+ monocytes): Stimulation

Molecule: C[C@@H]1C[C@@H]([C@H](O)CC2CC(=O)NC(=O)C2)C(=O)[C@@H](C)C1 [cyclohexamide, reference compound]
Effect on the Ca^++-mediated upregulation of CCR-2 (CCR-2; inhibition of new protein synthesis): no effect

Molecule: O=c1c(-c2ccc(O)cc2)coc2cc(O)cc(O)c12 [genistein, reference compound]
Inhibition of Ca^++-induced monocyte chemotaxis by pretreatment (CD14^+ monocytes): inhibitable | Inhibition of monocyte chemotaxis towards a positive gradient of Ca^++ by pretreatment (CD14^+ monocytes): inhibitable

Molecule: CO[C@H]1[C@@H](OC)C[C@H](C)[C@@H](OC)C2=CC(=O)C=C(NC(=O)/C(C)=C/C=C\[C@H](OC)[C@@H](OC(N)=O)/C(C)=C/[C@@H]1C)C2=O [herbimycin, reference compound]
Inhibition of Ca^++-induced monocyte chemotaxis by pretreatment (CD14^+ monocytes): inhibitable | Inhibition of monocyte chemotaxis towards a positive gradient of Ca^++ by pretreatment (CD14^+ monocytes): inhibitable

Stimulation of cytosolic calcium responses (CaR [1]): Stimulation
Molecule: NCCCNCCCCNCCCN [spermine, reference compound]
Stimulation of transmigration (CD14^+ monocytes): Stimulation

Molecule: MCP-1: chemokine (PeproTech), ligand of CCR-2
Interaction of chemokine with added/elevated Ca^++ on transmigration (CD14^+ monocytes): synergistic | Dependence of chemokine-induced chemotaxis of CD14^+ PBMC on extracellular calcium (CD14^+ monocytes): dependent upon extracellular calcium | Chemotaxis of mouse mononuclear cells [3]: capable of chemotaxing | Accumulation of mononuclear cells staining positive for Mac-1 at injection site [2]: Accumulation | Mean fluorescence intensity of CaR expression (mean+/−s.e.m.) (CaR [4]): 673+/−59 units

Molecule: SDF-1α
Interaction of chemokine with added/elevated Ca^++ on transmigration (CD14^+ monocytes): no synergistic effect | Dependence of chemokine-induced chemotaxis of CD14^+ PBMC on extracellular calcium (CD14^+ monocytes): induced migration independent of calcium | Mean fluorescence intensity of CaR expression (mean+/−s.e.m.) (CaR [4]): 519+/−48 units | Chemotactic responses of primitive hematopoietic cells to SDF-1α (human CD34^+ cells): attenuated

B1: MIP-1α: chemokine (PeproTech) (protein, UniProt P10147 24-92, looked up)
C-C motif chemokine 3: SLAADTPTACCFSYTSRQIPQNFIADYFETSSQCSKPGVIFLTKRSRQVCADPSEEWVQKYVSDLELSA
Interaction of chemokine with added/elevated Ca^++ on transmigration (CD14^+ monocytes): no synergistic effect | Dependence of chemokine-induced chemotaxis of CD14^+ PBMC on extracellular calcium (CD14^+ monocytes): induced migration independent of calcium
